What is called IC50 is the concentration that gives 50% inhibition. A higher IC50 goes with a need for much substance.

Here are results for 4 compounds from patent publication EP1232756A1, “DRUGS, DRINKS OR FOODS” (Takara Shuzo Co, Ltd., priority 1999, dated 2001).

Assay [1] concerns female SD rat. The assay can be described thus: Anti-estrogenic activity of solution of EGCG in ethanol, subcutaneous BisA, rat uterine weight (Example 5). Type of assay: in vivo. Conditions: BisA 40 mg/kg subcutaneous alone. As to the method: (§1) A 16-days old female SD rat (Japan SLC) was purchased together with its mother, weaned at 19 days of age, and subjected to experiments from the next day. BisA was weighed such that it would be administered at 40 mg/kg and dissolved in a small volume of ethanol. Peanut oil was added thereto to result in a final ethanol concentration of 5%. The resulting mixture was subcutaneously administered for three successive days. The uterine removed on the day after the third administration day was weighed. EGCG (200 mg/kg) was dissolved by adding ethanol and water was then added thereto to adjust the final ethanol concentration to 10 or 0%. The solution was orally administered 30 minutes before the administration of BisA.

Assay [2] relates to female SD rat. Description: Effect of ethanol concentration on anti-estrogenic activity of EGCG, rat uterine weight (Example 4). The assay is classed as in vivo. Conditions: BisA 40 mg/kg subcutaneous alone. As to the method:
as §1, with “10, 5, 1, 0.5” for “10”, “90” for “30”

The test system of assay [3] is female SD rat. The assay can be described thus: Dose dependency of anti-estrogenic activity of solution of EGCG in ethanol, rat uterine weight (Example 6). Type of assay: in vivo. Conditions: for Ratio: vs control (100%). As to the method:
as §1, with “subcutaneously or orally” for “subcutaneously”, “EGCG” for “EGCG (200 mg/kg)”, “10%.” for “10 or 0%.”

For assay [4], the system named is female SD rat. Description: Anti-estrogenic activity of n-octyl gallate against BisA, rat uterine weight (Example 9). The assay is classed as in vivo. The settings on record: BisA 40 mg/kg oral + vehicle. As to the method: (§2) A 16-days old female SD rat (Japan SLC) was purchased together with its mother, weaned at 19 days of age, and subjected to experiments from the next day. n-Octyl gallate (Tokyo Kasei Kogyo) was dissolved in a small volume of ethanol. Peanut oil was added thereto to result in a final ethanol concentration of 5%. The resulting mixture was orally administered to the 20-days old female SD rat for three successive days. The uterine removed on the day after the last administration day was weighed. Peanut oil containing 5% ethanol was used for a vehicle administration group. BisA was dissolved in a small volume of ethanol. Peanut oil was added thereto to result in a final ethanol concentration of 5%. It was orally administered 1.5 hours after the administration of n-octyl gallate.

Assay [5] relates to human breast cancer-derived MCF-7 cells. Description: E-SCREEN assay, proliferation of cultured cells, MTT method (Example 8). Type of assay: cell-based. The settings on record: BisA alone. As to the method: A test for proliferation of cultured cells was carried out according to a method called the E-SCREEN assay as described in Ana M. Soto et al. (Environ. Health Perspect. 103:113-122(1995)). Briefly, 4.0 x 10^3 of human breast cancer-derived MCF-7 cells in a volume of 100 µL were seeded into each well of a 96-well plate. The plate was incubated overnight. BisA or a combination of BisA and n-octyl gallate was then added thereto. A well without the addition was used as a control. The cells were further cultured for 4 days in a medium, Dulbecco's modified Eagle medium without Phenol Red supplemented with 5% FCS treated with activated carbon-dextran. The MTT method was used to measured the cell numbers.

Assay [6] relates to female SD rat. Description: Anti-estrogenic activity of n-octyl gallate or n-cetyl gallate against subcutaneously administered BisA, rat uterine weight (Example 11). The assay is classed as in vivo. Conditions: for Ratio: vs control (100%). As to the method:
as §2, with “17-days” for “16-days”, “20” for “19”, “or n-cetyl gallate (both from Tokyo” for “(Tokyo”, “21-days” for “20-days”, “The mixture” for “It”, “subcutaneously administered.” for “orally administered 1.5 hours after the administration of n-octyl gallate.”

The test system of assay [7] is female SD rat. The assay can be described thus: Antagonistic (anti-estrogenic) activity of EGCG against bisphenol-A, immature rat uterine weight (Example 1(3)). Type of assay: in vivo. Conditions: BisA 800 mg/kg oral alone. As to the method:
(§3) A 17-days old female SD rat (purchased from Japan SLC) was received together with its mother, weaned at 20 days of age, and subjected to experiments from the next day. Five ml per kg body weight of EGCG (Sigma) or bisphenol-A (hereinafter referred to as BisA, Tokyo Kasei Kogyo) suspended in peanut oil (Nacalai Tesque) was administered orally and forcibly. Peanut oil was administered to a control rat in a similar manner. Administration was carried out once a day for three successive days. The uterine removed 24 hours after the last administration was weighed. BisA (800 mg/kg) and EGCG (800 mg/kg) were administered at the same time.

Assay [8] deals with female SD rat. The assay can be described thus: Agonistic (estrogenic) activity: immature rat uterine weight (Example 1(2)). The assay is classed as in vivo. Conditions: substance alone. As to the method:
as §3, with “or EGCG (80 or 800” for “(800”, “was administered. […]” for “and EGCG (800 mg/kg) were administered at the same time.”

In assay [9] the test system is female SD rat. The assay can be described thus: Anti-estrogenic activity of solution of EGCG in ethanol against bisphenol-A, rat uterine weight (Example 2). Type of assay: in vivo. The settings on record: for Uterine weight: mean ± standard error; for Ratio: vs control (100%). As to the method: A 17-days old female SD rat (purchased from Japan SLC) was received together with its mother, weaned at 20 days of age, and subjected to experiments from the next day. BisA was weighed such that it would be administered at 200 or 40 mg/kg and dissolved in a small volume of ethanol. Peanut oil was added thereto to result in a final ethanol concentration of 5%. The resulting mixture was orally administered for three successive days. The uterine removed on the next day was weighed. EGCG was dissolved by adding ethanol and water was then added thereto to adjust the final ethanol concentration to 10%. The solution was orally administered on the day before the administration of BisA and 30 minutes before each of the successive administrations of BisA.

For assay [10], the target named is T1, ER(α) (estrogen receptor α) (Homo sapiens, UniProt P03372).
T1 construct: purchased PanVera V2577
T1 sequence (P03372 1-595): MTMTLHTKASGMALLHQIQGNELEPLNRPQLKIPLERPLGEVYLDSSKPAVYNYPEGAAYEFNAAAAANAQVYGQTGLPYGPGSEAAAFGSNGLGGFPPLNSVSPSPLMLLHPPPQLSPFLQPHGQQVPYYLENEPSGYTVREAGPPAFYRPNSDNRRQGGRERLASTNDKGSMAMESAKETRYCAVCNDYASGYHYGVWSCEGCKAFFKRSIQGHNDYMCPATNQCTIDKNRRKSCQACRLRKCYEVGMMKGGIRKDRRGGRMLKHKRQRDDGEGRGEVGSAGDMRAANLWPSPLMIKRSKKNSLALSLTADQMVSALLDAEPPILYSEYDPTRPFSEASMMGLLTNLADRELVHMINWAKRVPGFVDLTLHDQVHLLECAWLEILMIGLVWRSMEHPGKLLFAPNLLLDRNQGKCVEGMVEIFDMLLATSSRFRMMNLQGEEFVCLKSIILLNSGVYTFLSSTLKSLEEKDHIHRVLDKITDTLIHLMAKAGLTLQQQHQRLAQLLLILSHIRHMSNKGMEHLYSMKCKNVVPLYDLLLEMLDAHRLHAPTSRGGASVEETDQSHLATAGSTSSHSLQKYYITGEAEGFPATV
Description: Binding to estrogen receptor, fluorescence polarization competition (FP Screen-for-Competitors kit, ER-α) (Example 7). Conditions: concentration inhibiting 50% of the binding of the ES1-ER(α) complex by competing with ES1; 1 hour at room temperature. As to the method:
Bindings of various gallic acid derivatives to estrogen receptor were tested using FP Screen-for-Competitors kit, ER-α, high sensitivity kit (V2577: PanVera). The tests were carried out basically according to the procedure as described in the manual attached to the kit. One of various gallic acid derivatives (n-octyl gallate (gallic acid n-octyl ester), n-dodecyl gallate (gallic acid n-dodecyl ester) and n-cetyl gallate (gallic acid n-hexadecyl ester)) was dissolved in DMSO and serially diluted to prepare diluted samples (0.5 M - 0.0000000005 M). 49 µL of Screening buffer attached to the kit was added to 1 µL of one of the diluted samples and stirred thoroughly. 50 µL of 10 nM-15 nM:ES1-ER(α) complex (a complex of ES1 (a fluorescent ligand that binds to ER) and ER(α) (estrogen receptor α)) attached to the kit was added thereto, resulting in the total volume of 100 µL. After allowing to stand for 1 hour at room temperature, fluorescence polarization was measured at an excitation wavelength of 360 nm and an emission wavelength of 535 nm using Full-Range BEACON 2000 (PanVera).

For assay [11], the system named is female SD rat. Description: Anti-estrogenic activity of n-octyl gallate against NP, rat uterine weight (Example 10). The assay is classed as in vivo. The settings on record: NP 50 mg/kg oral + vehicle. As to the method:
A 16-days old female SD rat (Japan SLC) was purchased together with its mother, weaned at 19 days of age, and subjected to experiments from the next day. n-Octyl gallate (Tokyo Kasei Kogyo) was dissolved in a small volume of ethanol. Peanut oil was added thereto to result in a final ethanol concentration of 5%. The resulting mixture was orally administered to the 20-days old female SD rat for three successive days. The uterine removed on the day after the last administration day was weighed. Peanut oil containing 5% ethanol was used for a vehicle administration group. NP weighed such that it would be administered at 50 mg/kg was diluted by adding peanut oil. It was orally administered 1.5 hours after the administration of n-octyl gallate.

Assay [12] relates to female SD rat. Description: Anti-estrogenic activity of solution of EGCG in ethanol against 4-nonylphenol, rat uterine weight (Example 3). The assay is classed as in vivo. The settings on record: NP 50 mg/kg oral alone. As to the method: A 16-days old female SD rat (Japan SLC) was purchased together with its mother, weaned at 19 days of age, and subjected to experiments from the next day.
4-Nonylphenol (hereinafter referred to as NP) was weighed such that it would be administered at 50 mg/kg and diluted by adding peanut oil thereto. The resulting mixture was orally administered for three successive days. The uterine removed on the day after the third administration day was weighed. EGCG was dissolved by adding ethanol and water was then added thereto to adjust the final ethanol concentration to 10%. The solution was orally administered 90 minutes before the administration of NP.

Take `CC(C)(c1ccc(O)cc1)c1ccc(O)cc1` [BisA, bisphenol-A, reference compound]: the Uterine weight with female SD rat [1] (mean ± standard error) was 50.0 ± 2.7 mg; in the assay on female SD rat [2] (mean ± standard error), 49.9 ± 2.1 mg; with female SD rat [3] (BisA 40 mg/kg subcutaneous alone, mean ± standard error), 52.2 ± 2.9 mg; in the assay on female SD rat [4] (mean ± standard error), 48.9 ± 2.1 mg; in the assay with female SD rat [6] (BisA 40 mg/kg subcutaneous + vehicle, mean ± standard error) it was 59.7 ± 2.7 mg; with female SD rat [7] (mean ± standard error), 54.7 ± 5.5 mg. In addition, the Uterine weight in the assay on female SD rat [8] (800 mg/kg oral in peanut oil, once a day for 3 days, mean ± standard error) was 55.2 ± 2.3 mg; in the assay on female SD rat [9] (BisA 40 mg/kg oral alone), 64.5 ± 9.2 mg; in the assay on female SD rat [9] (BisA 200 mg/kg oral alone), 57.7 ± 5.2 mg. Moreover, the Ratio was determined as 162% in the assay with female SD rat [1] (vs control (100%)); 186% with female SD rat [2] (vs control (100%)); 160% with female SD rat [3] (BisA 40 mg/kg subcutaneous alone); 140% in the assay with female SD rat [3] (BisA 40 mg/kg, oral, alone); 161% in the assay with female SD rat [4] (vs control (100%)); 145% in the assay on female SD rat [6] (BisA 40 mg/kg subcutaneous + vehicle). Moreover, the Ratio with female SD rat [7] (vs control (100%)) was 147%; with female SD rat [8] (uterine weight vs control group (100%), 800 mg/kg oral, 3 days), 137%; in the assay with female SD rat [9] (BisA 40 mg/kg, oral, alone), 149%; in the assay with female SD rat [9] (BisA 200 mg/kg oral alone), 133%. Also, the “number of the cells proliferated relative to the control” value in [5] (MCF-7) came to 1.8 fold. Also, the “Relative rate of increase in cell number” value in [5] (MCF-7, 4 days culture, control = 100) came out at 180%.
As to `CCCCCCCCCCCCCCCCOC(=O)c1cc(O)c(O)c(O)c1` [n-cetyl gallate, gallic acid n-hexadecyl ester], the Uterine weight in the assay with female SD rat [6] (BisA 40 mg/kg subcutaneous + n-cetyl gallate 1 mg/kg oral, 3 days) turned out to be 45.1 ± 2.3 mg; in the assay on female SD rat [6] (BisA 40 mg/kg subcutaneous + n-cetyl gallate 5 mg/kg oral, 3 days) it was 43.1 ± 2.0 mg. The Ratio with female SD rat [6] (BisA 40 mg/kg subcutaneous + n-cetyl gallate 1 mg/kg oral) is listed as 109%; in the assay on female SD rat [6] (BisA 40 mg/kg subcutaneous + n-cetyl gallate 5 mg/kg oral) it was 104%. The 50% inhibitory concentration (IC50) in assay [10] worked out at 47.6 nM.
The compound `CCCCCCCCCCCCOC(=O)c1cc(O)c(O)c(O)c1` [n-Dodecyl gallate, gallic acid n-dodecyl ester] yielded an IC50 in [10] of 311 nM.
Turning to `CCCCCCCCCc1ccc(O)cc1` [NP, 4-Nonylphenol, reference compound], the Uterine weight in the assay with female SD rat [11] (mean ± standard error) was determined as 47.6 ± 2.3 mg; in the assay on female SD rat [12] (mean ± standard error) it was 44.4 ± 3.2 mg. The Ratio with female SD rat [11] (vs control (100%)) and with female SD rat [12] (vs control (100%)) was 144% each time.
